Reference: ChEMBL document CHEMBL4190168 (Medchemcomm, 2016)

System: EA.hy 926
Assay: Antiproliferative activity against human EAhy926 cells after 48 hrs by MTT assay
Type: functional, cell-based
Settings: EA.hy 926, 48 h

Compound | IC50
Cn1c2ccccc2c2cc(CNCCCCNCc3cc4c5ccccc5n(C)c4c(-c4ccccc4)n3)nc(-c3ccccc3)c21 | 2.47 µM
CCCCCCn1c2ccccc2c2cc(C=O)nc(-c3ccc(OC)cc3)c21 | > 100 µM
COc1cc(-c2nc(CNCCCCCCNCc3cc4c5ccccc5n(CCCc5ccccc5)c4c(-c4cc(OC)c(OC)c(OC)c4)n3)cc3c4ccccc4n(CCCc4ccccc4)c23)cc(OC)c1OC | 1.69 µM
COc1ccc(-c2nc(C=O)cc3c4ccccc4n(-c4ccccc4)c23)cc1 | > 100 µM
COc1ccc(-c2nc(CNCCCCCCNCc3cc4c5ccccc5n(Cc5ccccc5)c4c(-c4ccc(OC)cc4)n3)cc3c4ccccc4n(Cc4ccccc4)c23)cc1 | 4.4 µM
COc1ccc(-c2nc(CNCCCCNCc3cc4c([nH]c5ccccc54)c(-c4ccc(OC)cc4)n3)cc3c2[nH]c2ccccc23)cc1 | 10.3 µM
COc1ccc(-c2nc(CNCCCCCNCc3cc4c5ccccc5n(C)c4c(-c4ccc(OC)cc4)n3)cc3c4ccccc4n(C)c23)cc1 | 1.1 µM
c1ccc(Cn2c3ccccc3c3cc(CNCCCNCc4cc5c6ccccc6n(Cc6ccccc6)c5c(-c5ccccc5)n4)nc(-c4ccccc4)c32)cc1 | > 20 µM
CCCCn1c2ccccc2c2cc(CNCCCNCc3cc4c5ccccc5n(CCCC)c4c(-c4ccc(Cl)cc4)n3)nc(-c3ccc(Cl)cc3)c21 | > 20 µM
O=Cc1cc2c3ccccc3n(Cc3ccccc3)c2c(-c2ccc(Cl)cc2)n1 | > 100 µM
CCCCn1c2ccccc2c2cc(C=O)nc(-c3ccc(Cl)cc3)c21 | > 100 µM
Cc1nc(C=O)cc2c3ccccc3n(CCCc3ccccc3)c12 | > 100 µM
Cc1nc(C=O)cc2c3ccccc3n(Cc3cccc(Cl)c3)c12 | > 100 µM
CCCCn1c2ccccc2c2cc(C=O)nc(C(C)C)c21 | > 100 µM
Clc1ccc(-c2nc(CNCCCCCNCc3cc4c5ccccc5n(Cc5ccccc5)c4c(-c4ccc(Cl)cc4)n3)cc3c4ccccc4n(Cc4ccccc4)c23)cc1 | 4.32 µM
COc1ccc(-c2nc(C=O)cc3c4ccccc4n(C)c23)cc1 | > 100 µM
CCCCn1c2ccccc2c2cc(CNCCCCNCc3cc4c5ccccc5n(CCCC)c4c(-c4ccc(Cl)cc4)n3)nc(-c3ccc(Cl)cc3)c21 | 4.85 µM
CCCCn1c2ccccc2c2cc(C=O)nc(C)c21 | > 100 µM
Cc1nc(C=O)cc2c3ccccc3n(C(C)C)c12 | > 100 µM
CC(C)c1nc(C=O)cc2c1[nH]c1ccccc12 | > 100 µM
Cc1nc(CNCCCNCc2cc3c4ccccc4n(CCCc4ccccc4)c3c(C)n2)cc2c3ccccc3n(CCCc3ccccc3)c12 | 9.87 µM
COc1ccc(-c2nc(CNCCCCNCc3cc4c5ccccc5n(C)c4c(-c4ccc(OC)cc4)n3)cc3c4ccccc4n(C)c23)cc1 | 2.94 µM
CCCCn1c2ccccc2c2cc(CNCCCCNCc3cc4c5ccccc5n(CCCC)c4c(C(C)C)n3)nc(C(C)C)c21 | 2.38 µM
CCn1c2ccccc2c2cc(CNCCCNCc3cc4c5ccccc5n(CC)c4c(-c4cc(OC)c(OC)c(OC)c4)n3)nc(-c3cc(OC)c(OC)c(OC)c3)c21 | 13.4 µM
Cc1nc(C=O)cc2c3ccccc3n(C)c12 | > 100 µM
Cc1nc(CNCCCCNCc2cc3c4ccccc4n(C)c3c(C)n2)cc2c3ccccc3n(C)c12 | 2.76 µM

Compound | IC50
Cc1nc(CNCCCCNCc2cc3c4ccccc4n(CC(C)C)c3c(C)n2)cc2c3ccccc3n(CC(C)C)c12 | 2.56 µM
Cn1c2ccccc2c2cc(C=O)nc(-c3ccccc3)c21 | > 100 µM
Cc1nc(C=O)cc2c3ccccc3n(CC(C)C)c12 | > 100 µM
CC(C)c1nc(C=O)cc2c3ccccc3n(Cc3ccccc3)c12 | > 100 µM
c1ccc(Cn2c3ccccc3c3cc(CNCCCCCCNCc4cc5c6ccccc6n(Cc6ccccc6)c5c(-c5ccccc5)n4)nc(-c4ccccc4)c32)cc1 | 8.09 µM
Cc1nc(CNCCCCCCNCc2cc3c4ccccc4n(C)c3c(C)n2)cc2c3ccccc3n(C)c12 | 1.85 µM
Cc1nc(C=O)cc2c3ccccc3n(Cc3ccccc3)c12 | > 100 µM
Cc1nc(CNCCCCNCc2cc3c4ccccc4n(C(C)C)c3c(C)n2)cc2c3ccccc3n(C(C)C)c12 | 1.28 µM
Cc1nc(CNCCCNCc2cc3c4ccccc4n(CC(C)C)c3c(C)n2)cc2c3ccccc3n(CC(C)C)c12 | 11.8 µM
COc1ccc(-c2nc(C=O)cc3c2[nH]c2ccccc23)cc1 | > 100 µM
CC(C)c1nc(CNCCCNCc2cc3c4ccccc4n(Cc4ccccc4)c3c(C(C)C)n2)cc2c3ccccc3n(Cc3ccccc3)c12 | 13.5 µM
Cc1nc(CNCCCNCc2cc3c4ccccc4n(Cc4cccc(Cl)c4)c3c(C)n2)cc2c3ccccc3n(Cc3cccc(Cl)c3)c12 | 11.1 µM
CC(C)c1nc(CNCCCCCNCc2cc3c([nH]c4ccccc43)c(C(C)C)n2)cc2c1[nH]c1ccccc12 | > 20 µM
Cc1nc(CNCCCNCc2cc3c4ccccc4n(Cc4ccccc4)c3c(C)n2)cc2c3ccccc3n(Cc3ccccc3)c12 | 15.3 µM
CC(C)c1nc(CNCCCCCCNCc2cc3c4ccccc4n(Cc4ccccc4)c3c(C(C)C)n2)cc2c3ccccc3n(Cc3ccccc3)c12 | 2.03 µM
CCCCn1c2ccccc2c2cc(CNCCCCNCc3cc4c5ccccc5n(CCCC)c4c(C)n3)nc(C)c21 | 1.69 µM
CCn1c2ccccc2c2cc(C=O)nc(-c3cc(OC)c(OC)c(OC)c3)c21 | > 100 µM
Cn1c2ccccc2c2cc(CNCCCCCCNCc3cc4c5ccccc5n(C)c4c(-c4ccccc4)n3)nc(-c3ccccc3)c21 | 1.61 µM
COc1ccc(-c2nc(CNCCCCCNCc3cc4c5ccccc5n(Cc5ccccc5)c4c(-c4ccc(OC)cc4)n3)cc3c4ccccc4n(Cc4ccccc4)c23)cc1 | 3.88 µM
COc1ccc(/C=C\c2cc(OC)c(OC)c(OC)c2)cc1OP(=O)(O)O [FOSBRETABULIN] | 6.4 µM
CCCCn1c2ccccc2c2cc(CNCCCCCNCc3cc4c5ccccc5n(CCCC)c4c(C(C)C)n3)nc(C(C)C)c21 | 1.4 µM
Clc1ccc(-c2nc(CNCCCCCCNCc3cc4c5ccccc5n(Cc5ccccc5)c4c(-c4ccc(Cl)cc4)n3)cc3c4ccccc4n(Cc4ccccc4)c23)cc1 | 3.63 µM
COc1cc(-c2nc(C=O)cc3c4ccccc4n(CCCc4ccccc4)c23)cc(OC)c1OC | > 100 µM
O=Cc1cc2c3ccccc3n(Cc3ccccc3)c2c(-c2ccccc2)n1 | > 100 µM
CCCCCCn1c2ccccc2c2cc(CNCCCCCCNCc3cc4c5ccccc5n(CCCCCC)c4c(-c4ccc(OC)cc4)n3)nc(-c3ccc(OC)cc3)c21 | 4.25 µM
Cc1nc(CNCCCCNCc2cc3c4ccccc4n(Cc4ccccc4)c3c(C)n2)cc2c3ccccc3n(Cc3ccccc3)c12 | 3.18 µM

System: not listed separately
Assay: Solubility of the compound in water
Type: physicochemical
Settings: not given

Compound | solubility
CCCCn1c2ccccc2c2cc(CNCCCCNCc3cc4c5ccccc5n(CCCC)c4c(C(C)C)n3)nc(C(C)C)c21.Cl | > 10 mg/mL
Cl.Cn1c2ccccc2c2cc(CNCCCCNCc3cc4c5ccccc5n(C)c4c(-c4ccccc4)n3)nc(-c3ccccc3)c21 | > 10 mg/mL
COc1ccc(-c2nc(CNCCCCNCc3cc4c5ccccc5n(C)c4c(-c4ccc(OC)cc4)n3)cc3c4ccccc4n(C)c23)cc1.Cl | > 10 mg/mL
Cl.Cn1c2ccccc2c2cc(CNCCCCCCNCc3cc4c5ccccc5n(C)c4c(-c4ccccc4)n3)nc(-c3ccccc3)c21 | > 10 mg/mL
COc1ccc(-c2nc(CNCCCCCNCc3cc4c5ccccc5n(Cc5ccccc5)c4c(-c4ccc(OC)cc4)n3)cc3c4ccccc4n(Cc4ccccc4)c23)cc1.Cl | > 10 mg/mL
Cc1nc(CNCCCNCc2cc3c4ccccc4n(Cc4ccccc4)c3c(C)n2)cc2c3ccccc3n(Cc3ccccc3)c12.Cl | > 10 mg/mL
COc1ccc(-c2nc(CNCCCCCNCc3cc4c5ccccc5n(C)c4c(-c4ccc(OC)cc4)n3)cc3c4ccccc4n(C)c23)cc1.Cl | > 10 mg/mL
Cl.Clc1ccc(-c2nc(CNCCCCCCNCc3cc4c5ccccc5n(Cc5ccccc5)c4c(-c4ccc(Cl)cc4)n3)cc3c4ccccc4n(Cc4ccccc4)c23)cc1 | > 10 mg/mL
Cc1nc(CNCCCCNCc2cc3c4ccccc4n(Cc4ccccc4)c3c(C)n2)cc2c3ccccc3n(Cc3ccccc3)c12.Cl | > 10 mg/mL
Cc1nc(CNCCCNCc2cc3c4ccccc4n(Cc4cccc(Cl)c4)c3c(C)n2)cc2c3ccccc3n(Cc3cccc(Cl)c3)c12.Cl | > 10 mg/mL
Cc1nc(CNCCCCNCc2cc3c4ccccc4n(C(C)C)c3c(C)n2)cc2c3ccccc3n(C(C)C)c12.Cl | > 10 mg/mL
COc1ccc(-c2nc(CNCCCCCCNCc3cc4c5ccccc5n(Cc5ccccc5)c4c(-c4ccc(OC)cc4)n3)cc3c4ccccc4n(Cc4ccccc4)c23)cc1.Cl | > 10 mg/mL
CCn1c2ccccc2c2cc(CNCCCNCc3cc4c5ccccc5n(CC)c4c(-c4cc(OC)c(OC)c(OC)c4)n3)nc(-c3cc(OC)c(OC)c(OC)c3)c21.Cl | > 10 mg/mL
Cl.c1ccc(Cn2c3ccccc3c3cc(CNCCCNCc4cc5c6ccccc6n(Cc6ccccc6)c5c(-c5ccccc5)n4)nc(-c4ccccc4)c32)cc1 | > 10 mg/mL
Cc1nc(CNCCCCCCNCc2cc3c4ccccc4n(C)c3c(C)n2)cc2c3ccccc3n(C)c12.Cl | > 10 mg/mL
CC(C)c1nc(CNCCCCCNCc2cc3c([nH]c4ccccc43)c(C(C)C)n2)cc2c1[nH]c1ccccc12.Cl | > 10 mg/mL
CCCCn1c2ccccc2c2cc(CNCCCNCc3cc4c5ccccc5n(CCCC)c4c(-c4ccc(Cl)cc4)n3)nc(-c3ccc(Cl)cc3)c21.Cl | > 10 mg/mL
CCCCCCn1c2ccccc2c2cc(CNCCCCCCNCc3cc4c5ccccc5n(CCCCCC)c4c(-c4ccc(OC)cc4)n3)nc(-c3ccc(OC)cc3)c21.Cl | > 10 mg/mL
CCCCn1c2ccccc2c2cc(CNCCCCNCc3cc4c5ccccc5n(CCCC)c4c(C)n3)nc(C)c21.Cl | > 10 mg/mL
CC(C)c1nc(CNCCCNCc2cc3c4ccccc4n(Cc4ccccc4)c3c(C(C)C)n2)cc2c3ccccc3n(Cc3ccccc3)c12.Cl | > 10 mg/mL
Cl.Clc1ccc(-c2nc(CNCCCCCNCc3cc4c5ccccc5n(Cc5ccccc5)c4c(-c4ccc(Cl)cc4)n3)cc3c4ccccc4n(Cc4ccccc4)c23)cc1 | > 10 mg/mL
COc1cc(-c2nc(CNCCCCCCNCc3cc4c5ccccc5n(CCCc5ccccc5)c4c(-c4cc(OC)c(OC)c(OC)c4)n3)cc3c4ccccc4n(CCCc4ccccc4)c23)cc(OC)c1OC.Cl | > 10 mg/mL
CC(C)c1nc(CNCCCCCCNCc2cc3c4ccccc4n(Cc4ccccc4)c3c(C(C)C)n2)cc2c3ccccc3n(Cc3ccccc3)c12.Cl | > 10 mg/mL
Cc1nc(CNCCCCNCc2cc3c4ccccc4n(C)c3c(C)n2)cc2c3ccccc3n(C)c12.Cl | > 10 mg/mL
Cc1nc(CNCCCNCc2cc3c4ccccc4n(CC(C)C)c3c(C)n2)cc2c3ccccc3n(CC(C)C)c12.Cl | > 10 mg/mL
